# In patent US20150238637A1, “Blood-brain Barrier Epitopes and Uses Thereof” (NATIONAL RESEARCH COUNCIL OF CANADA, priority 2005, published 2015):
# Assays:
# [1] = system: HCEC monolayers; experiment: Transport across the in vitro blood brain barrier model; type: cell-based, human; conditions: for effect on FC5 transport across the in vitro BBB model: 30 minutes preincubation
# Procedure: HCEC (80,000 cells/membrane) were seeded on a 0.5% gelatin coated Falcon tissue culture inserts (pore size-1 μm; surface area 0.83 cm^2) in 1 ml of growth medium. The bottom chamber of the insert assembly contained 2 ml of growth medium supplemented with the fetal human astrocyte-conditioned medium in a 1:1 (v/v) ratio (Muruganandam et al., 1997).
# Transport studies were performed 7 days post-seeding as described previously (Muruganandam et al., 1997; Muruganandam et al., 2002). Filter inserts were rinsed with transport buffer [phosphate buffered saline (PBS) containing 5 mM glucose, 5 mM MgCl2, 10 mM HEPES, 0.05% bovine serum albumin (BSA), pH 7.4] and allowed to equilibrate at 37° C. for 30 minutes. Experiments were initiated by adding 10 μg/ml FC5 to either apical or basolateral side of inserts containing either 0.5% gelatin-coated inserts without cells, control HCEC or HCEC pre-exposed to various pharmacological modulators for 30 min. Transport studies were conducted at 37° C. with plates positioned on a rotating platform stirring at 30-40 rpm. Aliquots (100 μl) were collected from the opposite chamber at various time intervals (5, 15, 30, 60, 90 minutes) and replaced with fresh buffer. The amount of FC5 transported across empty inserts or HCEC monolayers was determined by enzyme linked immunosorbent assay (ELISA) (see below). To control for HCEC membrane integrity and to estimate paracellular diffusion, the apical-to-basolateral and basolateral-to-apical clearance rates of [^14C]-sucrose were determined and calculated essentially as described previously (Muruganandam et al., 2002; Garberg et al., 2005) across the same monolayers used for FC5 transport studies. Sample-associated radioactivity in 50 μl aliquots was measured using a Mircobeta Trilux liquid scintillation counter (Wallac, Finland).
# Clearance was calculated as Cl (ml)=CA/CI×VA, where CI is the initial tracer or sdAb concentration in the donor chamber, CA is the tracer or sdAb concentration in the accepter chamber, and VA is the volume of the acceptor chamber. […] The effects of pharmacological agents on FC5 transmigration was subsequently assessed at 30 min.
# To measure the amount of FC5 transmigrated across the in vitro BBB model, 50 μl aliquots collected from the appropriate compartment were immobilized overnight at room temperature in a HisGrab nickel coated 96-well plate (Pierce). After blocking the plates with 2% BSA for 2 hours at room temperature, anti-c-Myc monoclonal antibody conjugated to HRP was added at a dilution of 1:5000 for 1 hour. After washing, the bound FC5 was detected with tetramethylbenzidine (TMB)/hydrogen peroxide substrate system. The signal was measured at […] on a microtiter plate reader. FC5 concentrations in collected aliquots were determined from a standard curve constructed using known FC5 concentrations.
# [2] = system: HCEC; experiment: Uptake into human cerebromicrovascular endothelial cells (immunofluorescence); type: cell-based; conditions: data not shown; for effect on FC5 uptake into HCEC: 30 minutes preincubation
# Procedure: The uptake of FC5 into HCEC was tested 15-90 minutes after adding 5 μg/ml of FC5 in the absence or presence of various pharmacological modulators of endocytosis. To visualize the intracellular distribution of FC5, cells were fixed, permeabilized and probed with the anti-c-myc antibody (1:100; 1 hour) followed by incubation with FITC-labeled anti-mouse IgG (1:250; 1 hour).
# [3] = 5 μg/ml, 30 minutes pretreatment
compound,measurement,setting,value
heparin sulfate,effect on FC5 transcytosis across the BBB in vitro,[1]; heparin sulfate 50 U/ml pre-incubation,did not affect
C[C@@H]1O[C@@H](O[C@H]2C[C@@H](O)[C@]3(CO)[C@H]4[C@H](O)C[C@]5(C)[C@@H](C6=CC(=O)OC6)CC[C@]5(O)[C@@H]4CC[C@]3(O)C2)[C@H](O)[C@H](O)[C@H]1O [ouabain],reduction of FC5 transport across HCEC,"[1]; ouabain 1 μM, 30 minutes pretreatment",40%
COC(=O)Nc1nc2ccc(C(=O)c3cccs3)cc2[nH]1 [nocodazole],effect on FC5 transcytosis,"[1]; 20 μM, 30 minutes pre-incubation",did not interfere
chondroitin sulfate A,effect on FC5 transcytosis across the BBB in vitro,[1]; 10 μg/ml pre-incubation,did not affect
mannan,effect on FC5 transmigration,[1]; mannan 1 mg/ml,did not affect
C[C@@H]1[C@H](O)[C@@H](C)/C=C/C=C/CC/C=C/C=C/C=C/C=C/C(O[C@H]2O[C@H](C)[C@@H](O)[C@H](N)[C@@H]2O)CC2O[C@](O)(CC(O)C(O)CCC(O)CC(O)CC(O)CC(=O)O[C@H]1C)CC(O)C2C(=O)O (stereo partly shown) [nystatin],effect on FC5 transmigration across in vitro BBB model,[1]; [3],None of the caveolae-mediated endocytosis inhibitors tested affected
O=CC[C@@H](O)[C@H](O)[C@H](O)CO [2-deoxyglucose],effect on FC5 transmigration,"[1]; 5 mM sodium azide and 5 mM 2-deoxyglucose together, 30 min, glucose-free medium",near-complete inhibition
"CN(C)CCCn1cc(C2=C(c3c[nH]c4ccccc34)C(=O)NC2=O)c2ccccc21 [BIM-1, bisindolyl-maleimide-1]",reduction of FC5 transcytosis across HCEC,"[1]; BIM-1 5 μM, 30 minutes pre-incubation",25%
N=C(N)NC(=O)c1nc(Cl)c(N)nc1N [amiloride],effect on transendothelial migration of FC5,[1]; amiloride 500 μM,no effect
"CCCC(=O)Nc1ncnc2c1ncn2[C@@H]1O[C@@H]2COP(=O)(O)O[C@H]2[C@H]1OC(=O)CCC [db-cAMP, dibutyryl-cAMP]",effect on FC5 transcytosis across HCEC,"[1]; db-cAMP 500 μM, 30 minutes pre-incubation",not affected
methyl-β-cyclodextrin,effect on FC5 transmigration across in vitro BBB model,"[1]; methyl-β-cyclodextrin 5 mM, 30 minutes pretreatment",None of the caveolae-mediated endocytosis inhibitors tested affected
CN(C)CCCN1c2ccccc2Sc2ccc(Cl)cc21 [chlorpromazine],inhibition at 50 µg/mL,"[1]; Homo sapiens, HCEC, chlorpromazine 50 μg/ml, 30 minutes pretreatment, read-out: inhibition of FC5 transmigration across in vitro BBB model",52%
"CC[C@@]1([C@@H]2O[C@@H]([C@H]3O[C@@](O)(CO)[C@H](C)C[C@@H]3C)C[C@@H]2C)CC[C@H]([C@]2(C)CC[C@]3(C[C@H](O)[C@@H](C)[C@@H]([C@@H](C)[C@@H](OC)[C@H](C)C(=O)O)O3)O2)O1 [Monensin, monensin]",inhibition at 25 µM,"[1]; Homo sapiens, HCEC, 0.5 h, monensin 25 μM, 30 minutes, 10 μg/ml FC5, read-out: inhibition of FC5 transcytosis across HCEC",34%
O=c1c(-c2ccc(O)cc2)coc2cc(O)cc(O)c12 [genistein],effect on FC5 transcytosis across HCEC,"[1]; genistein 50 μM, 30 minutes pre-incubation",not affected
holo-transferrin,effect on FC5 uptake,[2]; 100-fold excess of holo-transferrin,not reduced
same,effect on FC5 transendothelial transport,"[1]; 100-fold excess (1 mg/ml) of holo-transferrin, 10 μg/ml FC5, 30 minutes",not reduced
CCCCC[C@@H](O)[C@H]1C(=O)O[C@H](C)[C@@H](O)/C=C/C=C/C=C/C=C/C=C(\C)[C@@H](O)C[C@H](O)C[C@H](O)C[C@H](O)C[C@H](O)C[C@H](O)C[C@@H]1O [filipin],effect on FC5 transmigration across in vitro BBB model,[1]; [3],None of the caveolae-mediated endocytosis inhibitors tested affected
protamine sulfate,effect on FC5 uptake into HCEC,[2]; protamine sulfate 40 μg/ml,Neither compound affected
same,effect on FC5 transport across the in vitro BBB model,[1]; protamine sulfate 40 μg/ml,Neither compound affected
chondroitin sulfate C,effect on FC5 transcytosis across the BBB in vitro,[1]; 10 μg/ml pre-incubation,did not affect
poly-L-lysine,effect on FC5 uptake into HCEC,[2]; poly-L-lysine 300 μM,Neither compound affected
same,effect on FC5 transport across the in vitro BBB model,[1]; poly-L-lysine 300 μM,Neither compound affected
